Where two headings read alike, the source gives them in different places. One block for each compound: values may come before it.
Target: CFTR (Homo sapiens, UniProt P13569)
Test: Membrane Potential Dye, Enteroid Assay A
Type: cell-based
Settings: for EC50: read-out: Ent. A EC50
Procedure, shortened: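 Signal is reported as % Activity relative to a triple CFTR modulator control (3 μM + 3 μM + 300 nM acute). Read-out: membrane potential fluorescence (20 μM methyl oxonol) monitored for 15 min after chloride-free stimulation. Dye loading took 25 min at room temperature in Bath 1 buffer containing CaCC blockers.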

Sequence of CFTR (P13569 with tags, fused parts or gaps DEL508-508): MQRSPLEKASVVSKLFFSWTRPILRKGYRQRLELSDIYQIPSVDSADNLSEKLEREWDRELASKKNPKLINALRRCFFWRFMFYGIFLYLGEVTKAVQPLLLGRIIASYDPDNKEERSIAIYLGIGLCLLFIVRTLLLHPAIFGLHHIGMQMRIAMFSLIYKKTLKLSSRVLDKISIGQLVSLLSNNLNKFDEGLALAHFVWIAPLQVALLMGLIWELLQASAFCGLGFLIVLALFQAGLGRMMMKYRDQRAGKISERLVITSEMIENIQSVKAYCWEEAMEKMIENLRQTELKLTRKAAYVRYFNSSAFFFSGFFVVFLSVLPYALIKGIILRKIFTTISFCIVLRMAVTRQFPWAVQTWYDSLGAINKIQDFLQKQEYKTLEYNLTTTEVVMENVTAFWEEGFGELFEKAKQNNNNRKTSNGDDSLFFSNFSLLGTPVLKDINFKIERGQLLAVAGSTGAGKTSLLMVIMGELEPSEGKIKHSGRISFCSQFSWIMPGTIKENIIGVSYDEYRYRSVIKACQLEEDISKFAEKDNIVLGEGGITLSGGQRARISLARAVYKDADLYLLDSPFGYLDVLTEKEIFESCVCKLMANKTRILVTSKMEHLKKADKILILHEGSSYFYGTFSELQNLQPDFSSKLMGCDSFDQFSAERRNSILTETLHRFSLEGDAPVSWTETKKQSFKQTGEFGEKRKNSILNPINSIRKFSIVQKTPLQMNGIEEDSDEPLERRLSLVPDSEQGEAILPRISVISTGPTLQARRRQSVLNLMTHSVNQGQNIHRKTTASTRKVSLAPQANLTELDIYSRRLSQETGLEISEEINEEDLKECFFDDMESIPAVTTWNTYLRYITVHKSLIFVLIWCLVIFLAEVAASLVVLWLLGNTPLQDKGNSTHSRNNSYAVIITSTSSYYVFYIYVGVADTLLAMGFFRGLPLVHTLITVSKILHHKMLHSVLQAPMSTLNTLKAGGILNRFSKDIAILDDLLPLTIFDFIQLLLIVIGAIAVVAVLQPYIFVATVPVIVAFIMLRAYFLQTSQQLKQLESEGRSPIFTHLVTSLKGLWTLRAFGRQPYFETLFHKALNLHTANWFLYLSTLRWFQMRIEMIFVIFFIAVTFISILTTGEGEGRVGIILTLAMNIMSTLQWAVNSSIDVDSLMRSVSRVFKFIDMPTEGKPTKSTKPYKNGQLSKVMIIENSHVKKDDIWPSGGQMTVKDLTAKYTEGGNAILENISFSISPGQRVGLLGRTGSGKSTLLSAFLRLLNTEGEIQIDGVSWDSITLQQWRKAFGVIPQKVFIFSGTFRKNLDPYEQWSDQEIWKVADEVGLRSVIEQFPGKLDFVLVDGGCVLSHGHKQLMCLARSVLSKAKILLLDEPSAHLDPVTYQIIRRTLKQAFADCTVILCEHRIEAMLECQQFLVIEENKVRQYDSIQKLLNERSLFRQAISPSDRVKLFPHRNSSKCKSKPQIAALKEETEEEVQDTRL

SMILES: CC[C@H]1NC(=O)c2cccc(c2)S(=O)(=O)Nc2nc(cc(-c3c(C)cccc3C)n2)O[C@H]1c1ccc(C(C)(C)C)cc1 [Compound 132]
- Ent. A Max Activity (Table 9): +++ (+++ is >60%)
- EC50 (Table 9): < 1000 nM

SMILES: Cc1cccc(C)c1-c1cc2nc(n1)NS(=O)(=O)c1cccc(c1)C(=O)N[C@H](CC(C)C)C(C1CC1)O2 (stereo partly shown) [Compound 238]
- Ent. A Max Activity (Table 8): +++ (+++ is >60%)
- EC50 (Table 8): 1000 to 3000 nM

SMILES: Cc1cccc(C)c1-c1cc2nc(n1)NS(=O)(=O)c1cccc(c1)C(=O)NCC(c1cccc(C(C)(C)C)c1)O2 (stereo not shown) [Compound 247]
- Ent. A Max Activity (Table 8): +++ (+++ is >60%)
- EC50 (Table 8): < 1000 nM

SMILES: Cc1cccc(C)c1-c1cc2nc(n1)NS(=O)(=O)c1cccc(c1)C(=O)NC[C@@H](c1cccc(C(C)(C)C)c1)O2 [Compound 273]
- Ent. A Max Activity (Table 8): +++ (+++ is >60%)
- EC50 (Table 8): < 1000 nM

SMILES: Cc1cc(C(C)(C)C)ccc1C1CNC(=O)c2cccc(c2)S(=O)(=O)Nc2nc(cc(-c3c(C)cccc3C)n2)O1 (stereo not shown) [Compound 157]
- Ent. A Max Activity (Table 8): +++ (+++ is >60%)
- EC50 (Table 8): < 1000 nM

SMILES: Cc1cccc(C)c1-c1cc2nc(n1)NS(=O)(=O)c1cccc(c1)C(=O)N[C@@H](C(CC(C)C)c1ccccc1)CO2 (stereo in doubt) [Compound 182]
- Ent. A Max Activity (Table 9): ++ (++ is 30-60%)
- EC50 (Table 9): < 1000 nM

SMILES: Cc1cccc(C)c1-c1cc2nc(n1)NS(=O)(=O)c1cccc(c1)C(=O)NC(C(F)(F)F)CO2 (stereo not shown) [Compound 171]
- Ent. A Max Activity (Table 8): + (+ is <30%)

SMILES: Cc1cccc(C)c1-c1cc2nc(n1)NS(=O)(=O)c1cccc(c1)C(=O)NCC(c1ccc(C3(C)CC3)cc1)O2 (stereo not shown) [Compound 265]
- Ent. A Max Activity (Table 9): ++ (++ is 30-60%)
- EC50 (Table 9): < 1000 nM

SMILES: Cc1cccc(C)c1-c1cc2nc(n1)NS(=O)(=O)c1cccc(c1)C(=O)NC(C(=O)NC1CCCCC1)CO2 (stereo not shown) [Compound 237]
- Ent. A Max Activity (Table 8): + (+ is <30%)

SMILES: Cc1cccc(C)c1-c1cc2nc(n1)NS(=O)(=O)c1cccc(c1)C(=O)NC[C@@H](c1ccc(C(C)(C)C)cn1)O2 (single isomer, unassigned) [Compound 8, 10-(5-tert-butyl-2-pyridyl)-6-(2,6-dimethylphenyl)-2,2-dioxo-9-oxa-2λ^6-thia-3,5,12,19-tetrazatricyclo[12.3.1.14,8]nonadeca-1(18),4(19),5,7,14,16-hexaen-13-one]
- Ent. A Max Activity (Table 8): + (+ is <30%)

SMILES: Cc1cccc(C)c1-c1cc2nc(n1)NS(=O)(=O)c1cccc(c1)C(=O)NCC1(CCN(C(=O)c3cc4c(cc3O)CCCC4)CC1)CO2 [Compound 462]
- Ent. A Max Activity (Enteroid Assay A): ++ (++ is 30-60%)

SMILES: Cc1cccc(C)c1-c1cc2nc(n1)NS(=O)(=O)c1cccc(c1)C(=O)NCC(c1ccc(C34CC(C3)C4)cc1)O2 (stereo not shown) [Compound 397]
- Ent. A Max Activity (Table 9): + (+ is <30%)
- EC50 (Table 9): 3000 to 30000 nM

SMILES: Cc1cccc(C)c1-c1cc2nc(n1)NS(=O)(=O)c1cccc(c1)C(=O)NCC(c1ccc3c(c1)C(C)(C)CCC3(C)C)O2 (stereo not shown) [Compound 117]
- Ent. A Max Activity (Table 8): +++ (+++ is >60%)
- EC50 (Table 8): < 1000 nM

SMILES: Cc1cccc(C)c1-c1cc2nc(n1)NS(=O)(=O)c1cccc(c1)C(=O)NCC(c1ccc(C3CC3)cc1)O2 (stereo not shown) [Compound 268]
- Ent. A Max Activity (Table 8): +++ (+++ is >60%)
- EC50 (Table 8): < 1000 nM

SMILES: Cc1cc(C(C)(C)C)ccc1[C@H]1CNC(=O)c2cccc(c2)S(=O)(=O)Nc2nc(cc(-c3c(C)cccc3C)n2)O1 (stereo in doubt) [Compound 156]
- Ent. A Max Activity (Table 8): + (+ is <30%)

SMILES: Cc1cccc(C)c1-c1cc2nc(n1)NS(=O)(=O)c1cccc(c1)C(=O)NCC1(CCN(C(=O)C3(c4ccc5c(c4)CCC5)CC3)CC1)CO2 [Compound 464]
- Ent. A Max Activity (Enteroid Assay A): +++ (+++ is >600%)
- EC50 (Enteroid Assay A): 1000 to 3000 nM

SMILES: Cc1cccc(C)c1-c1cc2nc(n1)NS(=O)(=O)c1cccc(c1)C(=O)N[C@H](CC1CCOCC1)CO2 (stereo in doubt) [Compound 191]
- Ent. A Max Activity (Enteroid Assay A): +++ (+++ is >600%)
- EC50 (Enteroid Assay A): 3000 to 30000 nM

SMILES: Cc1cccc(C)c1-c1cc2nc(n1)NS(=O)(=O)c1cccc(c1)C(=O)NCC1(CCN(C(=O)CO[C@@H]3C[C@H](C)CC[C@H]3C(C)C)CC1)CO2 [Compound 468]
- Ent. A Max Activity (Enteroid Assay A): ++ (++ is 30-60%)
- EC50 (Enteroid Assay A): 1000 to 3000 nM

SMILES: Cc1cccc(C)c1-c1cc2nc(n1)NS(=O)(=O)c1cccc(c1)C(=O)NC1CC(CN(CCC(C)(C)C)C1)O2 (single isomer, unassigned) [Compound 79, 5-(3,3-dimethylbutyl)-19-(2,6-dimethylphenyl)-2-oxa-15λ^6-thia-5,8,16,18,21-pentaazatetracyclo[15.3.1.13,7.110,14]tricosa-1(20),10,12,14(22),17(21),18-hexaene-9,15,15-trione]
- Ent. A Max Activity (Enteroid Assay A): ++ (++ is 30-60%)
- EC50 (Enteroid Assay A): < 1000 nM

SMILES: Cc1cccc(C)c1-c1cc2nc(n1)NS(=O)(=O)c1cccc(c1)C(=O)NC[C@H](c1ccc(C(F)(F)F)cc1)O2 (stereo in doubt) [Compound 402]
- Ent. A Max Activity (Table 8): + (+ is <30%)
- EC50 (Table 8): 3000 to 30000 nM

SMILES: Cc1cccc(C)c1-c1cc2nc(n1)NS(=O)(=O)c1cccc(c1)C(=O)NCC1(CCN(C(=O)c3cc4ccc(OC(F)(F)F)cc4[nH]3)CC1)CO2 [Compound 84, 6-(2,6-Dimethylphenyl)-2,2-dioxo-1′-[6-(trifluoromethoxy)-1H-indole-2-carbonyl]spiro[9-oxa-2λ^6-thia-3,5,13,20-tetrazatricyclo[13.3.1.14,8]icosa-1(19),4(20),5,7,15,17-hexaene-11,4′-piperidine]-14-one]
- Ent. A Max Activity (Enteroid Assay A): ++ (++ is 30-60%)
- EC50 (Enteroid Assay A): < 1000 nM

SMILES: Cc1cccc(C)c1-c1cc2nc(n1)NS(=O)(=O)[C@H]1CC[C@H]1C(=O)N[C@H](CC(C)C)CO2 (single isomer, unassigned) [Compound 71]
- Ent. A Max Activity (Table 9): + (+ is <30%)

SMILES: Cc1cccc(C)c1-c1cc2nc(n1)NS(=O)(=O)c1cccc(c1)C(=O)N[C@H](COCc1ccccc1)CO2 [Compound 486]
- Ent. A Max Activity (Enteroid Assay A): +++ (+++ is >600%)
- EC50 (Enteroid Assay A): 1000 to 3000 nM

SMILES: Cc1cccc(C)c1-c1cc2nc(n1)NS(=O)(=O)c1cccc(c1)C(=O)N[C@@H](CC1CCC1)[C@@H](c1ccc(C(C)(C)C)cc1)O2 (stereo in doubt) [Compound 229]
- Ent. A Max Activity (Table 8): +++ (+++ is >60%)
- EC50 (Table 8): < 1000 nM

SMILES: Cc1cccc(C)c1-c1cc2nc(n1)NS(=O)(=O)c1cccc(c1)C(=O)NC1(CCCC1)CO2 [Compound 360]
- Ent. A Max Activity (Table 8): +++ (+++ is >60%)
- EC50 (Table 8): < 1000 nM

SMILES: Cc1cccc(C)c1-c1cc2nc(n1)NS(=O)(=O)c1cccc(c1)C(=O)NCC(c1ccc(CC3(C(F)(F)F)CC3)cc1)O2 (stereo not shown) [Compound 147]
- Ent. A Max Activity (Table 9): +++ (+++ is >60%)
- EC50 (Table 9): < 1000 nM

SMILES: Cc1cccc(C)c1-c1cc2nc(n1)NS(=O)(=O)c1cccc(c1)C(=O)NCC(c1ccc(P(C)(C)=O)cc1)O2 (stereo not shown) [Compound 21, 6-(2,6-Dimethylphenyl)-10-(4-dimethylphosphorylphenyl)-2,2-dioxo-9-oxa-2λ^6-thia-3,5,12,19-tetrazatricyclo[12.3.1.14,8]nonadeca-1(18),4(19),5,7,14,16-hexaen-13-one]
- Ent. A Max Activity (Table 8): + (+ is <30%)

SMILES: Cc1cccc(C)c1-c1cc2nc(n1)NS(=O)(=O)c1cccc(c1)C(=O)NCc1cccc(c1)O2 [Compound 197]
- Ent. A Max Activity (Enteroid Assay A): ++ (++ is 30-60%)
- EC50 (Enteroid Assay A): 3000 to 30000 nM

More lines, now with the values ahead:

- Ent. A Max Activity (Table 9): ++ (++ is 30-60%)
- EC50 (Table 9): 3000 to 30000 nM
SMILES: Cc1cccc(CO)c1-c1cc2nc(n1)NS(=O)(=O)c1cccc(c1)C(=O)N[C@H](CC(C)C)CO2 [Compound 395]

- Ent. A Max Activity (Enteroid Assay A): ++ (++ is 30-60%)
SMILES: CC(C)C[C@@H]1COc2cc(-c3ccnn3C(C)C)nc(n2)NS(=O)(=O)c2cccc(c2)C(=O)N1 [Compound 341]

- Ent. A Max Activity (Enteroid Assay A): +++ (+++ is >600%)
- EC50 (Enteroid Assay A): < 1000 nM
SMILES: CC(C)C[C@@H]1COc2cc(-c3ccccc3OC(F)(F)F)nc(n2)NS(=O)(=O)c2cccc(c2)C(=O)N1 [Compound 103, (11R)-11-(2-Methylpropyl)-6-[2-(trifluoromethoxy)phenyl]-9-oxa-2λ^6-thia-3,5,12,19-tetraazatricyclo[12.3.1.14,8]nonadeca-1(17),4(19),5,7,14(18),15-hexaene-2,2,13-trione]

- Ent. A Max Activity (Table 8): + (+ is <30%)
SMILES: Cc1cccc(C)c1-c1cc2nc(n1)NS(=O)(=O)c1cc(cc(C3CC3)c1)C(=O)N[C@H](CC(C)C)CO2 [Compound 136]

- Ent. A Max Activity (Table 8): +++ (+++ is >60%)
- EC50 (Table 8): < 1000 nM
SMILES: CC(C)C[C@@H]1COc2cc(-c3c(C(C)C)cccc3C(C)C)nc(n2)NS(=O)(=O)c2cccc(c2)C(=O)N1 [Compound 99, (11R)-6-(2,6-diisopropylphenyl)-11-isobutyl-2,2-dioxo-9-oxa-2λ^6-thia-3,5,12,19-tetrazatricyclo[12.3.1.14,8]nonadeca-1(18),4,6,8(19),14,16-hexaen-13-one]

- Ent. A Max Activity (Table 9): ++ (++ is 30-60%)
- EC50 (Table 9): < 1000 nM
SMILES: CC(C)C[C@@H]1COc2cc(-c3ccccc3Oc3ccccc3)nc(n2)NS(=O)(=O)c2cccc(c2)C(=O)N1 [Compound 392]

- Ent. A Max Activity (Enteroid Assay A): ++ (++ is 30-60%)
- EC50 (Enteroid Assay A): 1000 to 3000 nM
SMILES: CC(C)C[C@@H]1COc2cc(C3=CCCCC3)nc(n2)NS(=O)(=O)c2cccc(c2)C(=O)N1 [Compound 327]

- Ent. A Max Activity (Table 8): + (+ is <30%)
- EC50 (Table 8): 3000 to 30000 nM
SMILES: CC(C)C[C@@H]1COc2cc(C3CCOCC3)nc(n2)NS(=O)(=O)c2cccc(c2)C(=O)N1 [Compound 314]

- Ent. A Max Activity (Table 9): +++ (+++ is >60%)
- EC50 (Table 9): < 1000 nM
SMILES: COc1cc(Cc2cccc(C)c2-c2cc3nc(n2)NS(=O)(=O)c2cccc(c2)C(=O)N[C@H](CC(C)C)CO3)cc(OC)c1 [Compound 167]

- Ent. A Max Activity (Table 9): ++ (++ is 30-60%)
- EC50 (Table 9): 3000 to 30000 nM
SMILES: Cc1cccnc1-c1cc2nc(n1)NS(=O)(=O)c1cccc(c1)C(=O)N[C@H](CC(C)C)CO2 [Compound 108, (11R)-11-Isobutyl-6-(3-methyl-2-pyridyl)-2,2-dioxo-9-oxa-2λ^6-thia-3,5,12,19-tetrazatricyclo[12.3.1.14,8]nonadeca-1(18),4(19),5,7,14,16-hexaen-13-one]

- EC50 (Enteroid Assay A): 1000 to 3000 nM
SMILES: CC(C)COc1cccc(-c2cc3nc(n2)NS(=O)(=O)c2cccc(c2)C(=O)N[C@H](CC(C)C)CO3)c1 [Compound 331]

- Ent. A Max Activity (Table 9): +++ (+++ is >60%)
- EC50 (Table 9): < 1000 nM
SMILES: Cc1cccc(C)c1-c1cc2nc(n1)NS(=O)(=O)c1cccc(c1)C(=O)N[C@H](CC(C)C)CCO2 [Compound 225]

Source: US20230382924A1, “MODULATORS OF CYSTIC FIBROSIS TRANSMEMBRANE CONDUCTANCE REGULATOR” (VERTEX PHARMACEUTICALS INCORPORATED, priority 2020, published 2023)
